Experimental data from patent US8304446B2, “Compounds” (Glaxo Group Limited, priority 2009, dated 2012).
Structures can show the parent of a compound that is named as a salt.

Test system: CD4+ CCR4+ T cells
Test: Chemokine stimulated increases in cellular F-actin content
Assay type: cell-based
Conditions: Homo sapiens, T-cell, 0.5 h; PBMC from normal volunteers; antagonist 30 min at 37° C. before agonist for 15 sec; F-actin content by flow cytometry; read-out: pA2 (converted)
Procedure: Chemokine Stimulated Increases in Cellular F-Actin Content
Blood was taken from normal volunteers who had taken no medication within the previous ten days and mixed with 1/9 of the volume of 3.8% tri-sodium citrate solution. Chemokine-induced increases in the F-actin content of CD4+ CCR4+ T cells were measured by a modification of the method of Pilette et al. (Eur. Respir. J; 23: 876-884, 2004). Peripheral blood mononuclear cells (PBMC) were isolated by dextran sedimentation followed by Percoll density gradient centrifugation. The PBMCs were incubated with FITC-conjugated anti-human CD4 and PE-conjugated anti-CCR4 antibodies or appropriate isotype controls for 15 min. The cell suspensions were then centrifuged at 400 g for 10 min and the pellets resuspended in assay buffer (phenol red-free RPMI 1640 medium containing 10 mM HEPES and 0.1% bovine serum albumin) at 10^7/mL. The resulting cell suspension was incubated with antagonist or vehicle (0.1% DMSO) for 30 min at 37° C. before stimulation with the agonist for 15 sec. The assay was terminated by addition of 3% formaldehyde. The fixed cells were washed twice with PBS (centrifuging at 1000 g for 5 min to recover the cells) and incubated at room temperature with Alexa fluor-647 phalloidin (0.075 U/mL) in the presence of lyso-phosphatidylcholine (93.75 μg/ml) for 20 min to stain F-actin. The cells were washed once more with PBS and the relative F-actin content of the cells was measured flow cytometrically. The mean fluorescence intensity of 1000 CD4^+ CCR4^+ cells per sample was determined and expressed as a fraction of the mean intensity of the CD4^+ CCR4^− cells in that sample.

| SMILES | Kb [nM] |
| --- | --- |
| COc1cccc2c1c(NS(=O)(=O)c1ccc(Cl)s1)nn2Cc1cccc(CNC(C)=O)c1 [Example 1, N-[(3-{[3-{[(5-Chloro-2-thienyl)sulfonyl]amino}-4-(methyloxy)-1H-indazol-1-yl]methyl}phenyl)methyl]acetamide] | ≤ 126 |
| COc1cccc2c1c(NS(=O)(=O)c1ccc(Cl)s1)nn2Cc1cccc(CNC=O)c1 [Example 5, 5-Chloro-N-[1-({3-[(formylamino)methyl]phenyl}methyl)-4-(methyloxy)-1H-indazol-3-yl]-2-thiophenesulfonamide] | ≤ 126 |
| COc1cccc2c1c(NS(=O)(=O)c1ccc(Cl)s1)nn2Cc1cccc(CNC(=O)[C@H]2CCCCN2)c1 [Example 9, (2R)—N-[(3-{[3-{[(5-chloro-2-thienyl)sulfonyl]amino}-4-(methyloxy)-1H-indazol-1-yl]methyl}phenyl)methyl]-2-piperidinecarboxamide trifluoroacetate salt] | ≤ 126 |
| COc1cccc2c1c(NS(=O)(=O)c1ccc(Cl)s1)nn2Cc1cccc(CNC(=O)C(C)(C)CN)c1 [Example 11, 3-Amino-N-[(3-{[3-{[(5-chloro-2-thienyl)sulfonyl]amino}-4-(methyloxy)-1H-indazol-1-yl]methyl}phenyl)methyl]-2,2-dimethylpropanamide hydrochloride] | ≤ 126 |
| CNCC(=O)NCc1cccc(Cn2nc(NS(=O)(=O)c3ccc(Cl)s3)c3c(OC)cccc32)c1 [Example 12, N^1-[(3-{[3-{[(5-chloro-2-thienyl)sulfonyl]amino}-4-(methyloxy)-1H-indazol-1-yl]methyl}phenyl)methyl]-N^2-methylglycinamide hydrochloride] | ≤ 126 |
| COc1cccc2c1c(NS(=O)(=O)c1ccc(Cl)s1)nn2Cc1cccc(CNC(=O)[C@@]2(C)CCCN2)c1 [Example 13, N-[(3-{[3-{[(5-Chloro-2-thienyl)sulfonyl]amino}-4-(methyloxy)-1H-indazol-1-yl]methyl}phenyl)methyl]-2-methyl-D-prolinamide] | ≤ 126 |
| COc1cccc2c1c(NS(=O)(=O)c1ccc(Cl)s1)nn2Cc1cccc(CNC(=O)C2(C)CCCCN2)c1 (stereo not drawn) [Example 14, N-[(3-{[3-{[(5-chloro-2-thienyl)sulfonyl]amino}-4-(methyloxy)-1H-indazol-1-yl]methyl}phenyl)methyl]-2-methyl-2-piperidinecarboxamide] | ≤ 126 |
| CNC1(C(=O)NCc2cccc(Cn3nc(NS(=O)(=O)c4ccc(Cl)s4)c4c(OC)cccc43)c2)CC1 [Example 15, N-[(3-{[3-{[(5-Chloro-2-thienyl)sulfonyl]amino}-4-(methyloxy)-1H-indazol-1-yl]methyl}phenyl)methyl]-1-(methylamino)cyclopropanecarboxamide hydrochloride] | ≤ 126 |
| COc1cccc2c1c(NS(=O)(=O)c1ccc(Cl)s1)nn2Cc1cccc(CNC(=O)[C@@H](C)N)c1 [Example 19, N^1-[(3-{[3-{[(5-chloro-2-thienyl)sulfonyl]amino}-4-(methyloxy)-1H-indazol-1-yl]methyl}phenyl)methyl]-D-alaninamide trifluoroacetate] | ≤ 126 |
| COc1cccc2c1c(NS(=O)(=O)c1ccc(Cl)s1)nn2Cc1cccc(CNC(=O)CN)c1 [Example 20, N^1-[(3-{[3-{[(5-chloro-2-thienyl)sulfonyl]amino}-4-(methyloxy)-1H-indazol-1-yl]methyl}phenyl)methyl]glycinamide trifluoroacetate] | ≤ 126 |
| CNC(=O)[C@@H](N)CC(=O)NCc1cccc(Cn2nc(NS(=O)(=O)c3ccc(Cl)s3)c3c(OC)cccc32)c1 [Example 22, N^4-[(3-{[3-{[(5-chloro-2-thienyl)sulfonyl]amino}-4-(methyloxy)-1H-indazol-1-yl]methyl}phenyl)methyl]-N^1-methyl-L-aspartamide trifluoroacetate] | ≤ 126 |
| COC(=O)[C@@H](N)CC(=O)NCc1cccc(Cn2nc(NS(=O)(=O)c3ccc(Cl)s3)c3c(OC)cccc32)c1 [Example 23, Methyl N^4-[(3-{[3-{[(5-chloro-2-thienyl)sulfonyl]amino}-4-(methyloxy)-1H-indazol-1-yl]methyl}phenyl)methyl]asparaginate trifluoroacetate] | ≤ 126 |
| COc1cccc2c1c(NS(=O)(=O)c1ccc(Cl)s1)nn2Cc1cccc(CNC(=O)CC2CCCN2)c1 (stereo not drawn) [Example 24, N-[(3-{[3-{[(5-chloro-2-thienyl)sulfonyl]amino}-4-(methyloxy)-1H-indazol-1-yl]methyl}phenyl)methyl]-2-(2-pyrrolidinyl)acetamide trifluoroacetate] | ≤ 126 |
| COc1cccc2c1c(NS(=O)(=O)c1ccc(Cl)s1)nn2Cc1cccc(CNC(=O)CC(C)N)c1 (stereo not drawn) [Example 25, 3-Amino-N-[(3-{[3-{[(5-chloro-2-thienyl)sulfonyl]amino}-4-(methyloxy)-1H-indazol-1-yl]methyl}phenyl)methyl]butanamide trifluoroacetate] | ≤ 126 |
| CNCCC(=O)NCc1cccc(Cn2nc(NS(=O)(=O)c3ccc(Cl)s3)c3c(OC)cccc32)c1 [Example 29, N^1-[(3-{[3-{[(5-Chloro-2-thienyl)sulfonyl]amino}-4-(methyloxy)-1H-indazol-1-yl]methyl}phenyl)methyl]-N^3-methyl-β-alaninamide trifluoroacetate] | ≤ 126 |
| COCC(=O)NCc1cccc(Cn2nc(NS(=O)(=O)c3ccc(Cl)s3)c3c(OC)cccc32)c1 [Example 30, N-[(3-{[3-{[(5-Chloro-2-thienyl)sulfonyl]amino}-4-(methyloxy)-1H-indazol-1-yl]methyl}phenyl)methyl]-2-(methyloxy)acetamide] | ≤ 126 |
| COc1cccc2c1c(NS(=O)(=O)c1ccc(Cl)s1)nn2Cc1cccc(CNC(=O)[C@H](C)N(C)C)c1 [Example 31, N^1-[(3-{[3-{[(5-Chloro-2-thienyl)sulfonyl]amino}-4-(methyloxy)-1H-indazol-1-yl]methyl}phenyl)methyl]-N^2,N^2-dimethylalaninamide trifluoroacetate] | ≤ 126 |
| COc1cccc2c1c(NS(=O)(=O)c1ccc(Cl)s1)nn2Cc1cccc(CNC(=O)CO)c1 [Example 32, N-[(3-{[3-{[(5-Chloro-2-thienyl)sulfonyl]amino}-4-(methyloxy)-1H-indazol-1-yl]methyl}phenyl)methyl]-2-hydroxyacetamide] | ≤ 126 |
| COc1cccc2c1c(NS(=O)(=O)c1ccc(Cl)s1)nn2Cc1cccc(CNC(=O)C(C)(C)N(C)C)c1 [Example 34, N^1-[(3-{[3-{[(5-Chloro-2-thienyl)sulfonyl]amino}-4-(methyloxy)-1H-indazol-1-yl]methyl}phenyl)methyl]-N^2,N^2,2-trimethylalaninamide trifluoroacetate] | ≤ 126 |
| COCCN(C)CC(=O)NCc1cccc(Cn2nc(NS(=O)(=O)c3ccc(Cl)s3)c3c(OC)cccc32)c1 [Example 36, N^1-[(3-{[3-{[(5-Chloro-2-thienyl)sulfonyl]amino}-4-(methyloxy)-1H-indazol-1-yl]methyl}phenyl)methyl]-N^2-methyl-N^2-[2-(methyloxy)ethyl]glycinamide trifluoroacetate] | ≤ 126 |
| COc1cccc2c1c(NS(=O)(=O)c1ccc(Cl)s1)nn2Cc1cccc(CNC(=O)c2cnco2)c1 [Example 38, N-[(3-{[3-{[(5-Chloro-2-thienyl)sulfonyl]amino}-4-(methyloxy)-1H-indazol-1-yl]methyl}phenyl)methyl]-1,3-oxazole-5-carboxamide] | ≤ 126 |
